The values that follow come from patent publication US20240092761A1, “QUINAZOLINE COMPOUNDS AND METHODS OF USE” (IAMBIC THERAPEUTICS, INC., priority 2022, published 2024).

Type in all cases: biochemical
For assay [1], the target named is CDK1/Cyclin B1 (Homo sapiens (Human), UniProt P06493). The assay is described as follows: CDK1/Cyclin B1 ADP-Glo Kinase Assay. Particulars: 80 uM ATP. The method, boiled down:
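CDK1/cyclin B1 (4.917 nM) preincubated 30 min with inhibitor (2% DMSO), then 80 µM ATP (Km 78.6 µM) and 0.75 µM substrate added; 90 min, room temperature, pH 7.5. ADP measured by ADP-Glo luminescence; IC50 from 4-parameter fit.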
(In general: ADP-Glo turns the ADP formed in a reaction into a luminescent signal.)

For assay [2], the target named is CDK2/Cyclin E1 full length (Homo sapiens (Human), UniProt P24941). Description: CDK2/Cyclin E1 Full Length ADP-Glo Kinase Assay. Particulars: 20 uM ATP, read-out: CDK2/ CyclinE1 IC50. The method, boiled down:
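Full-length human CDK2/Cyclin E1 (0.328 nM) pre-incubated 30 min with inhibitor at RT, then reacted 90 min at RT with 20 uM ATP (Km 64.78 uM) and 0.75 uM substrate in pH 7.5 HEPES, 2% DMSO. ADP measured by ADP-Glo luminescence; IC50 from 4-parameter fit of fractional velocity.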

Assay [3] has as its target CDK4/Cyclin D1 (Homo sapiens (Human), UniProt P11802). The assay is described as follows: CDK4/Cyclin D1 Mobility Shift Assay (MSA). Particulars: 0.2 mM ATP, read-out: CDK4/ CyclinD1 MSA IC50. From the text: CDK4/Cyclin D1 Mobility Shift Assay (MSA)
The purpose CDK4/Cyclin D1 assay is to evaluate the inhibition (% inhibition and IC50 values) in the presence of small molecule inhibitors by using a fluorescence based microfluidic mobility shift assay. CDK4/Cyclin D1 catalyzes the production of ADP from ATP that accompanies the phosphoryl transfer to the substrate peptide 5-FAM-Dyrktide (5-FAM-RRRFRPASPLRGPPK) (Perkin Elmer Peptide 34). The mobility shift assay (MSA) electrophoretically separates the fluorescently labelled peptides (substrate and phosphorylated product) following the kinase reaction. Both substrate and product are measured, and the ratio of these values is used to generate % conversion of substrate to product by the LabChip EZ Reader. Typical reaction solutions contained 2% DMSO (+/−inhibitor), 10 mM MgCl2, 1 mM EGTA, 0.05% BSA, 2 mM DTT, 0.2 mM ATP, 0.01% Brig-35, 1.5 uM 5-FAM-Dyrktide, 2.5 nM CDK4/Cyclin D1 in 50 mM HEPES buffer at pH 7.5. The reaction was initiated with the addition of substrate solution, following a 30-minute pre-incubation of enzyme and inhibitor at 22° C. in the reaction mix. The reaction was stopped after 180 minutes by the addition of 75 uL of 500 mM EDTA and measured on a Perkin Elmer EZ reader instrument. IC50 determinations were made from a plot of the fractional velocity as a function of inhibitor concentration fit to the 4 parameters IC50 equation.

Assay [4] concerns the target CDK6/Cyclin D3 (Homo sapiens (Human), UniProt Q00534). Description: CDK6/Cyclin D3 ADP-Glo Kinase Assay. Particulars: 100 uM ATP, read-out: CDK6/ CyclinD3 IC50. The method, boiled down:
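Recombinant human CDK6/Cyclin D3 pre-incubated 30 min with inhibitor at room temperature, then reaction started with ATP/substrate and run 90 min at room temperature. ADP formed detected by ADP-Glo luminescence; IC50 from a 4-parameter fit of fractional velocity versus inhibitor concentration.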

Sequence of CDK6/Cyclin D3 (Q00534 whole entry): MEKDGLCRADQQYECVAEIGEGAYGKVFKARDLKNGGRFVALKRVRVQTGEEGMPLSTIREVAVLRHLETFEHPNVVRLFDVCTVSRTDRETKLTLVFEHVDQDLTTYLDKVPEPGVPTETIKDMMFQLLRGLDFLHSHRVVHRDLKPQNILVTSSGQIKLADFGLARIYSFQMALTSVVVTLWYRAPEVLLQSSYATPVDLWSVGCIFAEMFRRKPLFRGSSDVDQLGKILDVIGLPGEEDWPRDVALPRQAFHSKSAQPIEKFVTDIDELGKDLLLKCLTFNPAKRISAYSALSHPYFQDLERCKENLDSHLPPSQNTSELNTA
Sequence of CDK6/Cyclin D3 (P30281 whole entry partner): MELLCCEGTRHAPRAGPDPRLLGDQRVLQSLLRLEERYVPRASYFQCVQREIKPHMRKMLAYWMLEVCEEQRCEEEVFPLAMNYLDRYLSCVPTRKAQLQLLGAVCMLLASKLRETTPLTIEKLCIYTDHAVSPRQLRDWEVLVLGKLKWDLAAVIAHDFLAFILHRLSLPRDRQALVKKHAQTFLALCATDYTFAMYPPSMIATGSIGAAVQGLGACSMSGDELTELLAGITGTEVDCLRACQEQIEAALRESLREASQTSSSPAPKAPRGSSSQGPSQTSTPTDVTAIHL
Sequence of CDK4/Cyclin D1 (P11802 whole entry): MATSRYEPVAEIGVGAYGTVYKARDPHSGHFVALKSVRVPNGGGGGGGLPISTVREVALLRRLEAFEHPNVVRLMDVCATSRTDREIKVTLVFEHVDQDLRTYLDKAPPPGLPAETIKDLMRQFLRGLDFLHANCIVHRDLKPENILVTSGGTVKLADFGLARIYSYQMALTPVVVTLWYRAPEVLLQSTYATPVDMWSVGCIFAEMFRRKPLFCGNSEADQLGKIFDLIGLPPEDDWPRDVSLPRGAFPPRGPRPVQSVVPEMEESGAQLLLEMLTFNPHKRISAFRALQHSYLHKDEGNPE
Sequence of CDK4/Cyclin D1 (P24385 whole entry partner): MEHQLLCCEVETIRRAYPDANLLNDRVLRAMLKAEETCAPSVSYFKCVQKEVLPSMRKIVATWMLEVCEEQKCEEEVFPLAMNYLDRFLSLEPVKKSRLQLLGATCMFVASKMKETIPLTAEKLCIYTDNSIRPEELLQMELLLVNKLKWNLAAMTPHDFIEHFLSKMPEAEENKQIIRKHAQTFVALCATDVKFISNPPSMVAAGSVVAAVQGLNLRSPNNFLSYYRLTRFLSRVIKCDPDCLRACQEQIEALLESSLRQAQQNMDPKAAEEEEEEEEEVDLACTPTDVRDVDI
Sequence of CDK1/Cyclin B1 (P06493 whole entry): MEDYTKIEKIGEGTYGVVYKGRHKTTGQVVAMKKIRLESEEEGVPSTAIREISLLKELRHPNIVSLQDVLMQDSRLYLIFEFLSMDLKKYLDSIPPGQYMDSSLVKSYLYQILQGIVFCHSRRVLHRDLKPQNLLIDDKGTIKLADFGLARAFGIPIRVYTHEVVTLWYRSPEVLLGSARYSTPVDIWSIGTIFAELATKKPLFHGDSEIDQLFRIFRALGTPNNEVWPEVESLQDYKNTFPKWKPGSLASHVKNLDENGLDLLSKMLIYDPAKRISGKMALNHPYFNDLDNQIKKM
Sequence of CDK1/Cyclin B1 (P14635 whole entry partner): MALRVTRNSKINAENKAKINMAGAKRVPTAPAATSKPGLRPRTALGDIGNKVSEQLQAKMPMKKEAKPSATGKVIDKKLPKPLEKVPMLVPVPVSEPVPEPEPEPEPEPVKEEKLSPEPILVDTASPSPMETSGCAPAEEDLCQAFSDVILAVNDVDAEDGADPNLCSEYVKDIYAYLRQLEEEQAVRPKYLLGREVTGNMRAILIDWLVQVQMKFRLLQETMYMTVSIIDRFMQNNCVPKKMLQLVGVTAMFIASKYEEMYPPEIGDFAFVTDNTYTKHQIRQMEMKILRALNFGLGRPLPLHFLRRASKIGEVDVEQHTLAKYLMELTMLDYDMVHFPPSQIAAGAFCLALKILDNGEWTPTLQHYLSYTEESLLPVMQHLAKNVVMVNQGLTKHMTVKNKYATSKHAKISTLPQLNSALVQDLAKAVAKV

With `CS(=O)(=O)N1CCC(Nc2ncc3cccc(N4CCN(S(C)(=O)=O)CC4)c3n2)CC1` [Example 12, 8-(4-(methylsulfonyl)piperazin-1-yl)-N-(1-(methylsulfonyl)piperidin-4-yl)quinazolin-2-amine], the IC50 in assay [1] is greater than 2000 nM; in assay [2], 200 to 500 nM; in assay [3], 200 to 500 nM; in assay [4], 500 to 2000 nM.

As to `CCN(CC)C1CCN(c2cccc3cnc(NC4CCN(S(C)(=O)=O)CC4)nc23)CC1` [Example 20, 8-(4-(diethylamino)piperidin-1-yl)-N-(1-(methylsulfonyl)piperidin-4-yl)quinazolin-2-amine], the IC50 in assay [1] is greater than 2000 nM; in assay [2], less than 200 nM; in assay [3], 200 to 500 nM; in assay [4], 500 to 2000 nM.

For the compound `CC1(C)CC2(CN(c3cccc4cnc(NC5CCN(S(C)(=O)=O)CC5)nc34)C2)C1` [Example 21, 8-(6,6-dimethyl-2-azaspiro[3.3]heptan-2-yl)-N-(1-(methylsulfonyl)piperidin-4-yl)quinazolin-2-amine], the IC50 in assay [1] was greater than 2000 nM; in assay [2], 200 to 500 nM; in assay [3] it was 200 to 500 nM; in assay [4], greater than 2000 nM.

`CS(=O)(=O)N1CCC(Nc2ncc3cccc(N4CCN(CC5CC5)CC4)c3n2)CC1` [Example 17, 8-(4-(cyclopropylmethyl)piperazin-1-yl)-N-(1-(methylsulfonyl)piperidin-4-yl)quinazolin-2-amine]: the IC50 is greater than 2000 nM in assay [1], less than 200 nM in assay [2], 200 to 500 nM in assay [3] and 500 to 2000 nM in assay [4].

As to `CS(=O)(=O)N1CCC(Nc2ncc3cccc(N4CCC5(CCC(F)(F)CC5)C4)c3n2)CC1` [Example 28, 8-(8,8-difluoro-2-azaspiro[4.5]decan-2-yl)-N-(1-(methylsulfonyl)piperidin-4-yl)quinazolin-2-amine], the IC50 was greater than 2000 nM in assay [1], less than 200 nM in assay [2], less than 200 nM in assay [3] and less than 200 nM in assay [4].

On to `CS(=O)(=O)N1CCC(Nc2ncc3cccc(N4CCC5(CCN(S(C)(=O)=O)C5)C4)c3n2)CC1` (centres unmarked) [Example 23, 8-(7-(methylsulfonyl)-2,7-diazaspiro[4.4]nonan-2-yl)-N-(1-(methylsulfonyl)piperidin-4-yl)quinazolin-2-amine], for which the IC50 was greater than 2000 nM in assay [1], less than 200 nM in assay [2], less than 200 nM in assay [3] and less than 200 nM in assay [4].

For the compound `CC(=O)N1CC2(CCN(c3cccc4cnc(NC5CCN(S(C)(=O)=O)CC5)nc34)C2)C1` [Example 5, 1-(6-(2-((1-(methylsulfonyl)piperidin-4-yl)amino)quinazolin-8-yl)-2,6-diazaspiro[3.4]octan-2-yl)ethan-1-one], the IC50 is greater than 2000 nM in assay [1], 200 to 500 nM in assay [2], 500 to 2000 nM in assay [3] and 500 to 2000 nM in assay [4].

Turning to `CS(=O)(=O)N1CCC(Nc2ncc3cccc(N4CCCC5(COC5)C4)c3n2)CC1` [Example 8, N-(1-(methylsulfonyl)piperidin-4-yl)-8-(2-oxa-6-azaspiro[3.5]nonan-6-yl)quinazolin-2-amine], the IC50 is greater than 2000 nM in assay [1], 200 to 500 nM in assay [2], 500 to 2000 nM in assay [3] and 500 to 2000 nM in assay [4].

Turning to `CC(=O)N1CCC2(CC1)CCN(c1cccc3cnc(NC4CCN(S(C)(=O)=O)CC4)nc13)C2` [Example 25, 1-(2-(2-((1-(methylsulfonyl)piperidin-4-yl)amino)quinazolin-8-yl)-2,8-diazaspiro[4.5]decan-8-yl)ethan-1-one], the IC50 in assay [1] was greater than 2000 nM; in assay [2], less than 200 nM; in assay [3] it was less than 200 nM; in assay [4] it was 200 to 500 nM.

As to `CS(=O)(=O)N1CCC(Nc2ncc3cccc(N4CC5CC(C4)O5)c3n2)CC1` [Example 30, 8-(6-oxa-3-azabicyclo[3.1.1]heptan-3-yl)-N-(1-(methylsulfonyl)piperidin-4-yl)quinazolin-2-amine], the IC50 in assay [1] is 500 to 2000 nM; in assay [2], less than 200 nM; in assay [3], less than 200 nM; in assay [4], 200 to 500 nM.

`CS(=O)(=O)N1CCC(Nc2ncc3cccc(N4CCC5(CCC(F)(F)C5)C4)c3n2)CC1` (centres unmarked) [Example 34, 8-(7,7-difluoro-2-azaspiro[4.4]nonan-2-yl)-N-(1-(methylsulfonyl)piperidin-4-yl)quinazolin-2-amine]: the IC50 was 500 to 2000 nM in assay [1], less than 200 nM in assay [2], less than 200 nM in assay [3] and 200 to 500 nM in assay [4].

`CCN1CC2(C1)CN(c1ccc(Nc3ncc4cccc(N5CC6(C5)CC(F)(F)C6)c4n3)nc1)C2` [Example 49, 8-(6,6-difluoro-2-azaspiro[3.3]heptan-2-yl)-N-(5-(6-ethyl-2,6-diazaspiro[3.3]heptan-2-yl)pyridin-2-yl)quinazolin-2-amine]: the IC50 in assay [1] was greater than 2000 nM; in assay [2], greater than 2000 nM; in assay [3], less than 200 nM; in assay [4], 200 to 500 nM.

As for `CS(=O)(=O)N1CCC(Nc2ncc3cccc(N4CCOC5(CC5)C4)c3n2)CC1` [Example 9, N-(1-(methylsulfonyl)piperidin-4-yl)-8-(4-oxa-7-azaspiro[2.5]octan-7-yl)quinazolin-2-amine], the IC50 in assay [1] is greater than 2000 nM; in assay [2] it was 200 to 500 nM; in assay [3], 500 to 2000 nM; in assay [4], 200 to 500 nM.

Take `CS(=O)(=O)N1CCC(Nc2ncc3cccc(N4CCN(C5CC5)CC4)c3n2)CC1` [Example 13, 8-(4-cyclopropylpiperazin-1-yl)-N-(1-(methylsulfonyl)piperidin-4-yl)quinazolin-2-amine]: the IC50 in assay [1] is greater than 2000 nM; in assay [2], less than 200 nM; in assay [3] it was 200 to 500 nM; in assay [4], 500 to 2000 nM.

Take `CS(=O)(=O)N1CCC(Nc2ncc3cccc(N4CC5(CCOCC5)C4C4CC4)c3n2)CC1` (centres unmarked) [Example 16, 8-(1-cyclopropyl-7-oxa-2-azaspiro[3.5]nonan-2-yl)-N-(1-(methylsulfonyl)piperidin-4-yl)quinazolin-2-amine]: the IC50 in assay [1] is greater than 2000 nM; in assay [2], less than 200 nM; in assay [3], 500 to 2000 nM; in assay [4], greater than 2000 nM.

Take `CS(=O)(=O)N1CCC(Nc2ncc3cccc(N4CCCC4)c3n2)CC1` [Example 2, N-(1-(methylsulfonyl)piperidin-4-yl)-8-(pyrrolidin-1-yl)quinazolin-2-amine]: the IC50 in assay [1] is 500 to 2000 nM; in assay [2], less than 200 nM; in assay [3] it was less than 200 nM; in assay [4] it was less than 200 nM.

On to `CS(=O)(=O)N1CCC(Nc2ncc3cccc(N4CCCC5(CCOC5)C4)c3n2)CC1` (centres unmarked) [Example 7, N-(1-(methylsulfonyl)piperidin-4-yl)-8-(2-oxa-7-azaspiro[4.5]decan-7-yl)quinazolin-2-amine], for which the IC50 was greater than 2000 nM in assay [1], less than 200 nM in assay [2], 200 to 500 nM in assay [3] and 500 to 2000 nM in assay [4].

Regarding `CS(=O)(=O)N1CCC(Nc2ncc3cccc(N4CCN(C5COC5)CC4)c3n2)CC1` [Example 11, N-(1-(methylsulfonyl)piperidin-4-yl)-8-(4-(oxetan-3-yl)piperazin-1-yl)quinazolin-2-amine], the IC50 in assay [1] was greater than 2000 nM; in assay [2] it was 500 to 2000 nM; in assay [3], 500 to 2000 nM; in assay [4], greater than 2000 nM.

`CN1CCN(C2CCN(c3cccc4cnc(NC5CCN(S(C)(=O)=O)CC5)nc34)C2)CC1` (centres unmarked) [Example 29, 8-(3-(4-methylpiperazin-1-yl)pyrrolidin-1-yl)-N-(1-(methylsulfonyl)piperidin-4-yl)quinazolin-2-amine]: the IC50 is greater than 2000 nM in assay [1], 200 to 500 nM in assay [2], 500 to 2000 nM in assay [3] and greater than 2000 nM in assay [4].

`CS(=O)(=O)N1CCC(Nc2ncc3cccc(N4CCC5(COC5)C4)c3n2)CC1` [Example 22, N-(1-(methylsulfonyl)piperidin-4-yl)-8-(2-oxa-6-azaspiro[3.4]octan-6-yl)quinazolin-2-amine]: the IC50 in assay [1] was 500 to 2000 nM; in assay [2], less than 200 nM; in assay [3], less than 200 nM; in assay [4] it was less than 200 nM.
